BindingDB's records for doi:10.1016/j.bmcl.2014.06.076 (Genentech, 2014)

Each molecule was assayed against L-lactate dehydrogenase A chain (Homo sapiens, UniProt P00338) (assay: Inhibition of human recombinant carboxy-terminal His-tagged LDHA by UV endpoint assay).

| Structure (SMILES) | IC50 |
| --- | --- |
| O=C1CC(c2ccccc2Cl)CC(O)=C1Sc1ccccc1Cl (centres undefined) | > 100 µM |
| Cc1cc(C)c(SC2=C(O)CC(c3ccccc3)CC2=O)nc1C#N (centres undefined) | 5.6 µM |
| O=C1CC(c2ccc(Cl)cc2)CC(O)=C1Sc1ccccc1Cl (centres undefined) | > 100 µM |
| O=C1CC(c2c(F)cccc2F)CC(O)=C1Sc1ccccc1Cl (centres undefined) | > 100 µM |
| O=C1CC(c2c(Cl)ccc(Br)c2Cl)CC(O)=C1Sc1ccccc1Cl (centres undefined) | > 100 µM |
| Cc1ccc2nc(SC3=C(O)CC(c4ccccc4)CC3=O)[nH]c2c1 (centres undefined) | 2.1 µM |
| N#Cc1ccccc1SC1=C(O)CC(c2c(Cl)cccc2C(F)(F)F)CC1=O (centres undefined) | > 100 µM |
| O=C1CC(c2c(Cl)cccc2Br)CC(O)=C1Sc1ccccc1Cl (centres undefined) | > 100 µM |
| O=C1CC(c2ccccc2)CC(O)=C1Sc1ncc[nH]1 (centres undefined) | 0.87 µM |
| N#Cc1ccccc1SC1=C(O)CC(c2c(Cl)cccc2Cl)CC1=O (centres undefined) | > 100 µM |
| N#Cc1ccccc1SC1=C(O)CC(c2ccccc2Cl)CC1=O (centres undefined) | > 100 µM |
| O=C1CC(c2c(C(F)(F)F)cccc2C(F)(F)F)CC(O)=C1Sc1ccccc1Cl (centres undefined) | > 100 µM |
| O=C1CC(c2c(Cl)cccc2C(F)(F)F)CC(O)=C1Sc1ccccc1Cl (centres undefined) | > 100 µM |
| N#Cc1ccccc1SC1=C(O)CC(c2c(Br)cccc2Br)CC1=O (centres undefined) | > 100 µM |
| N#Cc1ccccc1SC1=C(O)CC(c2cccc(Cl)c2)CC1=O (centres undefined) | > 100 µM |
| O=C1CC(c2cccc(Cl)c2)CC(O)=C1Sc1ccccc1Cl (centres undefined) | > 100 µM |
| N#Cc1ccccc1SC1=C(O)CC(c2c(Cl)cccc2Br)CC1=O (centres undefined) | > 100 µM |
| Cc1cccc(C)c1C1CC(=O)C(Sc2ccccc2Cl)=C(O)C1 (centres undefined) | > 100 µM |
| O=C1CC(c2c(F)cccc2Cl)CC(O)=C1Sc1ccccc1Cl (centres undefined) | > 100 µM |
| CSc1nnc(SC2=C(O)CC(c3ccccc3)CC2=O)s1 (centres undefined) | 7.4 µM |
| O=C1CC(c2c(Br)cccc2Br)CC(O)=C1Sc1ccccc1Cl (centres undefined) | > 100 µM |
| Cc1cccc(C)c1C1CC(=O)C(Sc2ccccc2C#N)=C(O)C1 (centres undefined) | > 100 µM |
| N#Cc1ccccc1SC1=C(O)CC(c2ccc(Cl)cc2)CC1=O (centres undefined) | > 100 µM |
| COc1ccc(C2CC(=O)C(Sc3ccccc3Cl)=C(O)C2)cc1 (centres undefined) | > 100 µM |
